In patent publication US20190262343A1, “WOUND HEALING USING BRAF INHIBITORS” (THE REGENTS OF THE UNIVERSITY OF CALIFORNIA, priority 2016, published 2019):

What was measured:
[1] = test system: HEKa cells; experiment: Soft agar colony forming assay, HEKa; type: cell-based, human; settings: 1.5 μM vemurafenib
Method: Twenty four-well plates were covered with 300 μl of serum-free RPMI 1640 (Fisher Scientific, Hampton, N.H.) with 0.6% Noble agar (BD Biosciences, San Jose, Calif.), and incubated at 37° C. overnight, until solid. 300 μl of a suspension of HEKa and M249 cells (15,000 cells/ml) in a 1:1 mixture of growth medium with a concentration of 1.5 μM of vemurafenib and growth factor-reduced matrigel (BD Biosciences) was added to each well. After one week, automated colony quantification was performed using a BioSpot Series 5 UV analyzer.
(§1) Using these cultures, MAPK signaling was analyzed by western blot (FIGS. 2G-2H); and pERK and cell proliferation were analyzed by quantitative intracellular flow (phosphoflow) cytometry (FIG. 2I and FIGS. 4A-4B). […] Furthermore, in the presence of vemurafinab the proliferative marker Ki67 decreased in M249 melanoma cells while it increased in HEKa cells (FIGS. 21-2J).

[2] = test system: HEKa cells; experiment: Oris cell migration / wound-healing assay with seeder stoppers; type: cell-based, human
[3] = test system: pERK and Ki67 in HEKa cells; experiment: pERK and Ki67 by western blot and phosphoflow cytometry, HEKa; type: cell-based, human; settings: 1.5 μM vemurafenib vs vehicle
Method: HEKa and M249 cells treated with a concentration of 1.5 μM of vemurafenib or vehicle control were fixed with formaldehyde to a final concentration of 1.6%, and permeabilized using methanol (90%). Then, they were washed in staining buffer (sterile PBS, 0.5% BSA, 0.01% sodium azide, NaN3), and stained with Alexa Flour 647 mouse anti-ERK1/2 (pT202/pY204) antibody and PE mouse anti-human Ki67 antibody (BD Pharmingen, San Jose, Calif.) as previously described by Comin-Anduix, et al., PLoS One 5:e12711 (2010). After incubation, cells were washed again and resuspended in 3 ml of staining buffer. A total of 30,000 cellular events were acquired for analysis. Data was analyzed using FlowJo (Tree Star Inc., Ashland, Oreg.).
M249 and HEKa cells were treated in duplicate with a concentration of 1.5 μM of vemurafenib or vehicle control. Western blotting was performed as described previously by Escuin-Ordinas, et al., Mol. Oncol. 8:250-60 (2014).
as §1

[4] = test system: 6-mm round excisional wounds; experiment: Excisional skin wound splinting model, wound closure and histology; type: in vivo, Balb/c mice
Text: Dorsal skin wounds from CH3 mice treated with vemurafenib suspension or DMSO in saline control suspension were excised at day 2, 6 and 14. They were fixed in 10% neutral buffered formalin and embedded in paraffin and stained with hematoxylin and eosin (H&E) using standard methods. Balb/c mice were sacrificed at day 2, 6 and 14 with isoflurane overdose. Two 8-mm round pieces of tissue were collected from each Balbc/c mouse containing the whole wound area and the surrounding tissue and skin, cut precisely in half at the midline of the wound and fixed in 1% paraformaldehyde (PFA) for 16-18 hours at 4° C., dehydrated in 70% EtOH, and then paraffin embedded. Sections were cut at 4 μm, deparaffinized with xylene and descendant ethanol, and then incubated in 3% H2O2 for 10 minutes. After a wash in distilled water, the slides were incubated for 25 minutes in citrate buffer pH6 (Invitrogen) at 95° C. using a vegetable steamer. The slides were brought to room temperature, rinsed in PBST (Phosphate Buffered Saline containing 0.05% Tween-20), and then incubated at room temperature with 1:100 anti-mouse Ki-67 antibody (DAKO, Carpinteria, Calif.) for 1 hour and 1:10 phospho-ERK Ab (Cell Signaling), overnight. The Ki67 stained slides were rinsed with PBST and incubated at room temperature with 1:200 polyclonal Rabbit anti-rat immunoglobulin/Biotinylated Ab (Dako, E0468) for 30 minutes. All the slides were rinsed with PBST, and incubated with Dako EnVision+ System-HRP Labelled Polymer Anti-Rabbit (Dako) at room temperature for 30 minutes. After a rinse with PBST, the slides were incubated with DAB (3,3′-Diaminobenzidine) for visualization. Subsequently, the slides were washed in tap water, counterstained with Harris' Hematoxylin, dehydrated in ethanol, and mounted with media. The imaging and quantification of the cell-based immunohistochemistry, was performed with the HALO Next Generation Imaging analysis software (Indica Labs; Corrales, N. Mex.). HALO measures and reports individual cell data maintaining an interactive link between cell metrics and cell imagery. The number of pERK+, Ki67+ and PECAM-1+ cells was automatically counted with the HALO software. Three 20× fields of view from each side of the wound were automatically counted for pERK and Ki67 stains. PECAM-1+ and CD68+ cells were automatically counted on each side of the wound edges where the granulation tissue starts (1 mm length each side) on the excisional wound splinting model, and in the entire wound area on the incisional wound model.

[5] = test system: 2.5 cm dorsal skin wound; experiment: Incisional dorsal wound model, wound tensile strength (WTS); type: in vivo, C3Hf/Kam (H2-k) female mice; settings: for improvement in WTS compared to vehicle-treated controls: topical every other day, seven doses, day 14
Text: The skin wounds were surgically clipped on day 0 and mice were followed until day 14 (FIGS. 5A-5B). […] On day 14, the mice were euthanized and the skin containing the wound was removed and mounted in 20 mm strips with a horizontal wound sample in each strip.

[6] = test system: CD68+, IL-6+, COX-2+, PECAM-1+ cells; experiment: Immunohistochemistry of incisional wounds (CD68, IL-6, COX-2, PECAM-1); type: in vivo, mice
Text: Dorsal skin wounds from CH3 mice treated with vemurafenib suspension or DMSO in saline control suspension were excised at day 2, 6 and 14. They were fixed in 10% neutral buffered formalin and embedded in paraffin and stained with hematoxylin and eosin (H&E) using standard methods. Balb/c mice were sacrificed at day 2, 6 and 14 with isoflurane overdose. Two 8-mm round pieces of tissue were collected from each Balbc/c mouse containing the whole wound area and the surrounding tissue and skin, cut precisely in half at the midline of the wound and fixed in 1% paraformaldehyde (PFA) for 16-18 hours at 4° C., dehydrated in 70% EtOH, and then paraffin embedded. Sections were cut at 4 μm, deparaffinized with xylene and descendant ethanol, and then incubated in 3% H2O2 for 10 minutes. After a wash in distilled water, the slides were incubated for 25 minutes in citrate buffer pH6 (Invitrogen) at 95° C. using a vegetable steamer. […] The imaging and quantification of the cell-based immunohistochemistry, was performed with the HALO Next Generation Imaging analysis software (Indica Labs; Corrales, N. Mex.). […] The number of pERK+, Ki67+ and PECAM-1+ cells was automatically counted with the HALO software. Three 20× fields of view from each side of the wound were automatically counted for pERK and Ki67 stains. PECAM-1+ and CD68+ cells were automatically counted on each side of the wound edges where the granulation tissue starts (1 mm length each side) on the excisional wound splinting model, and in the entire wound area on the incisional wound model.
To elaborate on the activated pathways associated with the increased presence of wound healing cell subsets at this time point, the genes up-expressed in the vemurafenib-treated wounds were analyzed for enriched GO biological processes 2 fold increase) using ClueGo (Bindea, G. et al., Bioinformatics 25:1091-93 (2009)). […] To confirm these findings, the levels of COX-2+ and IL-6+ cells were quantified by immunohistochemistry. […]

CCCS(=O)(=O)Nc1ccc(F)c(C(=O)c2c[nH]c3ncc(-c4ccc(Cl)cc4)cc23)c1F [vemurafenib]
HEKa colonies in soft agar ([1]; one week): HEKa colonies proliferated | mean spot size of HEKa colonies ([1]; p=0.007): increased significantly | proliferative and migratory effects in combination cultures with mitomycin C or NSC295642 ([2]; 1.5 μM, 10 μg/mL mitomycin C or 1 μg/mL NSC295642): induced both proliferative and migratory effects | covering of the center of the wells by proliferating keratinocytes ([2]; 24 hours, control wells devoid of cells in the middle): covered the center of the wells after 24 hours | proliferative marker Ki67 in HEKa [3]: increased | pERK and cell cycle progression in HEKa ([3]; p=0.0225): paradoxical increase in pERK and cell cycle progression | percentage of wound closure compared to vehicle ([4]; 2 mg on days 0, 2 and 4, measured on days 2, 6 and 14): significantly higher percentage of wound closure | re-epithelialization in excisional wounds ([4]; compared to controls): re-epithelialization by day 6 | number of pERK+ and Ki67+ cells in the wounds ([4]; day 14, compared to control, p=0.02): statistically significantly higher | skin surface integrity in excisional wounds ([4]; delayed in the control group): re-established by day 14 | improvement in WTS compared to vehicle-treated controls ([5]; Experiment #1): 52% | improvement in WTS compared to vehicle-treated controls ([5]; Experiment #2): 33% | improvement in WTS compared to vehicle-treated controls ([5]; Experiment #3): 42% | improvement in WTS vs. vehicle control ([5]; separate assay, Experiment #4, p=0.01): 37% | macrophages (CD68+ cells) in wounds by IHC ([6]; day 6, topical): increase in macrophages | increase of PECAM-1+ cells ([6]; incisional wound model, p=0.02): 65% | IL-6+ and COX-2+ cells ([6]; proliferation stage, day 6): higher IL-6+ and COX-2+ cells
